The results in this text go back to US20230391868A1, “COMPOSITIONS FOR AND METHODS OF TREATING CANCER” (The George Washington University, priority 2022, published 2023).

Assay [1] concerns SM1 melanoma tumors. The assay is described as follows: Immunophenotyping of SM1 tumors by flow cytometry. The class given is in vivo, mouse. The procedure: Flow Cytometry: Immunophenotyping of tumors by flow cytometry was performed following the protocol previously described (Knox T, et al. (2019) Sci. Rep. 9:6136; Banik D, et al. (2020) Cancer Res. 80:3649-3662). When control tumors reached the endpoint (2000 mm^3), mice were euthanized following the IACUC protocol at The George Washington University, and tumors were processed into a single-cell suspension for analysis by flow cytometry with tumor digestion buffer containing collagenases I and IV, hyaluronidase V, and DNAse I. Dead cells were discriminated using LIVE/DEAD™ Fixable Aqua Dead Cell Stain Kit (ThermoFisher Scientific, L34965). The antibodies used to stain cell surface markers were all purchased from BioLegend (San Diego, CA) unless otherwise mentioned. Myeloid cell surface markers include: APC/Fire 750 anti-mouse CD45.2 (clone 104), Brilliant Violet 421 anti-mouse/human CD11b (clone M1/70), Brilliant Violet 605 anti-mouse Ly-6G/Ly-6C (Gr-1) (clone RB6-8C5), Brilliant Violet 785 anti-mouse F4/80 (clone BM8), APC anti-mouse CD80 (clone 16-10A1), PerCP/Cyanine5.5 anti-mouse H-2Kd (clone SF1-1.1), PE/Cy7 anti-mouse CD206 (MMR) (clone C068C2), PE anti-mouse CD163 (clone 5B11), and Alexa Fluor 700 anti-mouse CD3 (clone 17A2). T cell surface markers are as follows: Brilliant Violet 785 anti-mouse CD45.2 (clone 104), PerCP/Cy5.5 anti-mouse CD3 (clone 17A2), APC/Fire 750 anti-mouse CD8a (clone 53-6.7), Brilliant Violet 650 anti-mouse CD4 (clone GK1.5), Brilliant Violet 605 anti-mouse CD44 (clone IM7), PE anti-mouse CD62L (clone MEL-14), and Pacific Blue anti-mouse CD25 (clone PC61). NK cell surface markers are as follows: Brilliant Violet 785 anti-mouse CD45.2 (clone 104), PerCP/Cy5.5 anti-mouse CD3 (clone 17A2), PE/Cy7 anti-mouse CD49b (pan-NK cells) (clone DX5), Brilliant Violet 421 anti-mouse CD16/32 (clone 93), Alexa Fluor 700 anti-mouse CD8a (clone 53-6.7), and PE anti-mouse 4-1BB (clone 17B5). Multicolor flow data was acquired using a BD FACS Celesta Cell Analyzer, and data analysis was performed with FlowJo software version 10.3. The gating strategies for each immune cell panel can be found in FIG. 11A-FIG. 11C.
To evaluate the effects of the single arms and combination therapy, the tumors were harvested at the experimental endpoint and immunophenotyping was performed by flow cytometry. Overall, the combination of NextA and anti-CD47 had immunomodulatory effects and enhanced immune cell infiltration in the TME. […] The different macrophage populations in the tumors were evaluated (FIG. 6B).

In assay [2] the test system is WM793 human melanoma cells. The assay is described as follows: CD47 gene expression upon IFNγ in WM793 cells. The format is cell-based. The following applies: 5 μM NextA (FIG. 3L). The method, then: qRT-PCR: Total RNA was extracted from cells using the Trizol reagent according to manufacturer's instructions (ThermoFisher Scientific, 15596018). Samples were then processed immediately or stored at −80° C. RNA was quantified using a NanoDrop One Spectrophotometer (ThermoFisher Scientific). The 260/280 ratios were routinely over 1.8. Sample cDNA was produced using the iScript cDNA synthesis kit (Bio-Rad, 1708891). Target mRNA was quantified using MyIQ single-color real-time PCR detection system from Bio-Rad (Bio-Rad, Hercules, CA) and iQ SYBR green Supermix (Bio-Rad, 1708882). […] Quantification is expressed in arbitrary units and target mRNA levels were normalized to R-actin expression.
This phenomenon was further examined in human melanoma cell lines to test the translational application of the results obtained using mouse models. […] Furthermore, the effects of HDAC6 KD on IFNγ-driven CD47 upregulation was analyzed. […] The effects of pharmacological inhibition of HDAC6 in other human melanoma cell lines (WM1361A and WM793) were also assessed. […]

For `CCCCN(Cc1ccc(C(=O)NO)cc1)C(=O)Nc1ccccc1` [NextA, Nexturastat A], the M1/M2 ratio entry in assay [1] (SM1 tumors) is reported as “increased”. Also, in assay [1] (SM1 tumors (FIG. 6B)), the “M1-like macrophages (CD80+, H2Kd+, F4/80+)” value is recorded as “significantly increased” and the “M2-like macrophages (CD206+, CD163+, F4/80+)” value is on record as “significantly decreased”. Moreover, the “CD3 T cell infiltration” value in assay [1] (SM1 tumors (FIG. 6C)) is listed as “increased”. The “total NKT, CD8+ NKT, and CD137+ CD8+ NKT cells in the TME” value in assay [1] (SM1 tumors (FIG. 6J)) is listed as “significantly increased”. In assay [2], the “IFNγ-driven CD47 upregulation” value is “corroborated”.
